The source made the active and inactive calls. The calls are words filed in the database; no cut-off is given here.
Experiments:
[1] = system: Jurkat; assay: Induction of apoptosis against human Jurkat cells assessed as late apoptotic cells at 0.1 uM measured for 24 hrs by Annexin V-FITC/propidium iodide staining based flow cytometry (reference value: 0.00%); format: functional
[2] = system: 4T1; assay: Cytotoxicity against mouse 4T1 cells assessed as reduction in cell viability incubated for 24 hrs by CCK-8 assay; format: functional, cell-based; details: 4T1, 24 h
[3] = Cytotoxicity against mouse L929 cells assessed as reduction in cell viability incubated for 24 hrs by CCK-8 assay; format: toxicity, cell-based
[4] = system: Jurkat; assay: Induction of apoptosis against human Jurkat cells assessed as early apoptotic cells at 0.1 uM measured for 24 hrs by Annexin V-FITC/propidium iodide staining based flow cytometry (reference value: 5.76%); format: functional
[5] = system: THP-1; assay: Cytotoxicity against human THP-1 cells assessed as reduction in cell viability incubated for 24 hrs by CCK-8 assay; format: functional, cell-based; details: THP-1, 24 h
[6] = system: Jurkat; assay: Induction of apoptosis against human Jurkat cells assessed as viable cells at 1 uM measured for 24 hrs by Annexin V-FITC/propidium iodide staining based flow cytometry (reference value: 94.2 %); format: functional; details: read-out: Activity
[7] = system: Jurkat; assay: Upregulation of phosphorylated p38 protein expression in human Jurkat cells at 1 uM measured for 3 hrs; format: functional, cell-based
[8] = system: THP-1; assay: Induction of apoptosis against human THP-1 cells assessed as early apoptotic cells at 0.1 uM measured for 24 hrs by Annexin V-FITC/propidium iodide staining based flow cytometry (reference value: 10.3%); format: functional
[9] = system: Jurkat; assay: Induction of apoptosis against human Jurkat cells assessed as necrotic cells at 10 uM measured for 24 hrs by Annexin V-FITC/propidium iodide staining based flow cytometry (reference value: 0.00%); format: functional
[10] = molecular target: T1, Phosphatidylinositol 4,5-bisphosphate 3-kinase catalytic subunit delta isoform (Homo sapiens) (UniProt O00329); assay: Antagonist activity at PI3Kdelta (unknown origin) assessed as inhibition rate at 20 nM using PIP2 as substrate in presence of ATP incubated for 30 to 60 mins by ADP-glo based luminescence assay relative to control; details: time 30-60 min
T1 sequence (whole entry): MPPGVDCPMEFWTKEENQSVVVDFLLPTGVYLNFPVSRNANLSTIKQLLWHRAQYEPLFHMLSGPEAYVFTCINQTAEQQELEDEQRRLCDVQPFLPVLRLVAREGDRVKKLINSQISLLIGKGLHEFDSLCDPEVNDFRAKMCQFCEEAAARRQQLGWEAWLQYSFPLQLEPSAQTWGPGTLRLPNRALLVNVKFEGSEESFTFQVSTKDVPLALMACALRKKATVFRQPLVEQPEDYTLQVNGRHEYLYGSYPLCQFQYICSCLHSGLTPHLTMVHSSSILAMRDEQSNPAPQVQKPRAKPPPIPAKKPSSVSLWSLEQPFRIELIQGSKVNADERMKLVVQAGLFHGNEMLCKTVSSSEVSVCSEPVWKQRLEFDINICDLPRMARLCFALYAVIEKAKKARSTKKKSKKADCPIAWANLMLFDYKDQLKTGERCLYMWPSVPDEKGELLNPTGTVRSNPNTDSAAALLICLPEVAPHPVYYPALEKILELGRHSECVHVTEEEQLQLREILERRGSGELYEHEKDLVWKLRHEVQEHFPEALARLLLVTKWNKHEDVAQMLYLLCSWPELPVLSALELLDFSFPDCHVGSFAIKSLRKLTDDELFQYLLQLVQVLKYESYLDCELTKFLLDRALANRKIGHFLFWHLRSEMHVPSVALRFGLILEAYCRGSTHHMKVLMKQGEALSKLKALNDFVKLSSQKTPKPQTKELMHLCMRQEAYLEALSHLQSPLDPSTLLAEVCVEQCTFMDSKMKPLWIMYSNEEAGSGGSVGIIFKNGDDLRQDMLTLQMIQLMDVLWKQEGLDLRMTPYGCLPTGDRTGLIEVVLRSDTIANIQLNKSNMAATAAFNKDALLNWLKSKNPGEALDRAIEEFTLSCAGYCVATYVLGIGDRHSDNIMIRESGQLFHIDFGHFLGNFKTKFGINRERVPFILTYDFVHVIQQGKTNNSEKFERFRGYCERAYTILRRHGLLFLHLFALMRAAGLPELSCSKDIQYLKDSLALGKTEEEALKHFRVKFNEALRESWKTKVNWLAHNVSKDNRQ

[11] = system: Jurkat; assay: Upregulation of phosphorylated ERK1/2 protein expression in human Jurkat cells at 10 uM measured for 3 hrs; format: functional, cell-based
[12] = system: THP-1; assay: Induction of apoptosis against human THP-1 cells assessed as early apoptotic cells at 10 uM measured for 24 hrs by Annexin V-FITC/propidium iodide staining based flow cytometry (reference value: 10.3%); format: functional
[13] = system: THP-1; assay: Induction of apoptosis against human THP-1 cells assessed as early apoptotic cells at 1 uM measured for 24 hrs by Annexin V-FITC/propidium iodide staining based flow cytometry (reference value: 10.3%); format: functional
[14] = system: Jurkat; assay: Induction of apoptosis against human Jurkat cells assessed as early apoptotic cells at 1 uM measured for 24 hrs by Annexin V-FITC/propidium iodide staining based flow cytometry (reference value: 5.76%); format: functional
[15] = system: Huh-7; assay: Cytotoxicity against human Huh-7 cells assessed as reduction in cell viability incubated for 24 hrs by CCK-8 assay; format: functional, cell-based; details: Huh-7, 24 h
[16] = system: RAW264.7; assay: Cytotoxicity against mouse RAW264.7 cells assessed as reduction in cell viability incubated for 24 hrs by CCK-8 assay; format: functional, cell-based; details: RAW264.7, 24 h
[17] = system: Jurkat; assay: Induction of apoptosis against human Jurkat cells assessed as necrotic cells at 1 uM measured for 24 hrs by Annexin V-FITC/propidium iodide staining based flow cytometry (reference value: 0.00%); format: functional
[18] = system: Jurkat; assay: Cytotoxicity against human Jurkat cells assessed as reduction in cell viability incubated for 24 hrs by CCK-8 assay; format: functional, cell-based
[19] = system: Jurkat; assay: Downregulation of phosphorylated AKT protein expression in human Jurkat cells measured for 3 hrs; format: functional, cell-based; details: dose 0.1-10 µM
[20] = system: T47D; assay: Cytotoxicity against human T47D cells assessed as reduction in cell viability incubated for 24 hrs by CCK-8 assay; format: functional, cell-based
[21] = molecular target: Phosphatidylinositol 4,5-bisphosphate 3-kinase catalytic subunit gamma isoform (Homo sapiens, UniProt P48736); assay: Antagonist activity at PI3Kgamma (unknown origin) using PIP2 as substrate in presence of ATP incubated for 30 to 60 mins by ADP-glo based luminescence assay
[22] = system: A549; assay: Cytotoxicity against human A549 cells assessed as reduction in cell viability incubated for 24 hrs by CCK-8 assay; format: functional, cell-based; details: A549, 24 h
[23] = system: THP-1; assay: Induction of apoptosis against human THP-1 cells assessed as necrotic cells at 0.1 uM measured for 24 hrs by Annexin V-FITC/propidium iodide staining based flow cytometry (reference value: 0.316%); format: functional
[24] = system: Jurkat; assay: Induction of apoptosis against human Jurkat cells assessed as viable cells at 0.1 uM measured for 24 hrs by Annexin V-FITC/propidium iodide staining based flow cytometry (reference value: 94.2 %); format: functional; details: read-out: Activity
[25] = system: MDA-MB-231; assay: Cytotoxicity against human MDA-MB-231 cells assessed as reduction in cell viability incubated for 24 hrs by CCK-8 assay; format: functional, cell-based; details: MDA-MB-231, 24 h
[26] = system: Jurkat; assay: Upregulation of phosphorylated p38 protein expression in human Jurkat cells measured for 3 hrs; format: functional, cell-based; details: dose 0.1-10 µM

Sequence of Phosphatidylinositol 4,5-bisphosphate 3-kinase catalytic subunit gamma isoform (P48736 whole entry, canonical isoform): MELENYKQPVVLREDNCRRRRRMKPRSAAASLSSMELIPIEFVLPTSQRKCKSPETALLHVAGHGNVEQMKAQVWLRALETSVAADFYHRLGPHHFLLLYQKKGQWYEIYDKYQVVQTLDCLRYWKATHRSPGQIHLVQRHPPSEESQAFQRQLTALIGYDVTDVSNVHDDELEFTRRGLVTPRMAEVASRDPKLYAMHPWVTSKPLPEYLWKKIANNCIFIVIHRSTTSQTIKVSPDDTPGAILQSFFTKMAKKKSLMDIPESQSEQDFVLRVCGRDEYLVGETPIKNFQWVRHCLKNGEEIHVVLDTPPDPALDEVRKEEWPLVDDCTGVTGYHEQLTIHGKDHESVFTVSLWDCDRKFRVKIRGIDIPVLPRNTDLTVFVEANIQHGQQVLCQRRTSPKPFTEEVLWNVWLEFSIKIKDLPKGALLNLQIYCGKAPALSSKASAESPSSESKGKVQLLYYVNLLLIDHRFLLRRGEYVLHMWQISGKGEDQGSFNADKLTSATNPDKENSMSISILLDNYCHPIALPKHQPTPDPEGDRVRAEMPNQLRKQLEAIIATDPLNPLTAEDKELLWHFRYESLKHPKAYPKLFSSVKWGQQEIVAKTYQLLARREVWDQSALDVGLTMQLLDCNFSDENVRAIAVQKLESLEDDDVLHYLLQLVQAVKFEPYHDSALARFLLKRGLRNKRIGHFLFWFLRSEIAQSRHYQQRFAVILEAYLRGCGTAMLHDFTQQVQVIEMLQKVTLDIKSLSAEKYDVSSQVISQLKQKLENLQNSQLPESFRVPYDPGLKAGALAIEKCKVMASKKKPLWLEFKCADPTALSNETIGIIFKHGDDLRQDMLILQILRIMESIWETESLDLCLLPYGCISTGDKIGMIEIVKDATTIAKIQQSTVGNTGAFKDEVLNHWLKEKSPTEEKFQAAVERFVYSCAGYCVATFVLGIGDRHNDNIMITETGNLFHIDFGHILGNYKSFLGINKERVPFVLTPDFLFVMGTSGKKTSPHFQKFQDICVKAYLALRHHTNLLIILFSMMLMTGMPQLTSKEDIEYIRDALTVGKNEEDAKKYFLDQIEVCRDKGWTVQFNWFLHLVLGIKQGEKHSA

COc1ccc(C#Cc2cccc3cc(C(C)Nc4ncnc5[nH]cnc45)n(-c4ccccc4)c(=O)c23)cc1 (stereo unspecified)
Activity [1]: 0.025% | IC50 [2]: 9.76 µM | IC50 at 24 h [3]: > 100 µM | Activity [4]: 10.9% | IC50 [5]: 7.47 µM | viability at 1 µM [6]: 82.3% | Activity [7]: Active | Activity [8]: 25.3% | Activity [9]: 0.016% | inhibition [10]: 16% | Activity [11]: Active | Activity [12]: 24.6% | Activity [13]: 35.7% | Activity [14]: 17.7% | IC50 [15]: 5.05 µM | IC50 [16]: 4.54 µM | Activity [17]: 0% | IC50 [18]: 2.41 µM | Activity [19]: Dose-Dependent Effect | IC50 [20]: > 100 µM | IC50 [21]: 0.208 µM | IC50 [22]: > 100 µM | Activity [23]: 0.125% | viability at 0.1 µM [24]: 66.8% | IC50 [25]: 6.6 µM | Activity [26]: Dose-Dependent Effect

— ChEMBL document CHEMBL5252648, “Design, synthesis and bioactivity evaluation of a series of quinazolinone derivatives as potent PI3Kγ antagonist” (Bioorg Med Chem, 2023)
